Measurements: patent US20030055018A1, “Modulation of phosphoinositide 3-kinase activity” (priority 2001, published 2003)

Experiments:
HaCaT cells = assay: Suspension survival assay of HaCaT keratinocytes; assay type: cell-based, human
Procedure: FIG. 8 is presented to complementary roles of tyrosine kinase and small GTPase signals induced by integrin or growth factor stimulation, in PI3K/Akt activation and cell survival. […] Akt kinase activity in cell lysates harvested 30 minutes later was measured by in vitro phosphorylation of H2B. […] HaCaT cells or HaCaT cells stably-expressing activated H-Ras G12V were cultured on 0.9% agarose in MCDB base medium. EGF was used at 2 nM concentration in the indicated culltures. Cell aliquots were removed after 6 hours in suspension for immunoblot analysis. Cell viability was examined after 10 days in suspension as described (Jost et al., 2001, Mol Biol Cell 12, 1519-27). (C) A model of PI3K activation by tyrosine kinase- and small GTPase signals. According to this model, p85 binds, via its cSH2 motif, tyrosine phosphorylated proteins and undergoes phosphorylation at Y688. Phosphorylation at this site, functionally inactivates the p85 inhibitory domain. Neutralization of the inhibitory domain renders p85 responsive to PI3K activation signals that are transduced by small GTPases.
These experiments were carried out in serum-free define media. The constitutively-active H-Ras G12V activates the PI3K/Akt pathway and rescues cells from anoikis only in suspension cultures supplemented with epidermal growth factor (EGF) (FIG. 8B). […] Thus, PI3K/Akt activation and inhibition of anoikis depend on the combination of tyrosine kinase and small GTPase signals.
Suspension survival assay were performed as previously described (Jost et al., 2001, Mol Biol Cell 12, 1519-27). […] Cell viability was measured after 10 days in suspension. Cell viability was analysed by crystal violet staining of cells reseeded after 10 days of suspension culture onto tissue culture-treated plastic and allowed to grow for 3 days. […]

PI3K/Akt pathway = assay: Akt activation in transfected NIH3T3 cells (H2B phosphorylation by immunoprecipitated FLAG-Akt, or Akt Thr308 immunoblot); assay type: cell-based, mouse
Source text: Specifically, to show whether membrane-associated full-length p85 is functionally similar to the carboxy-terminally truncated protein the p85 fused at its amino-terminus to a peptide encoding the Src myristoylation signal (Myrp85-WT) (FIG. 2A), was transiently expressed in NIH3T3 cells in combination with FLAG-Akt or FLAG-Akt plus H-Ras. Myrp85Δonc was used as a control. The cells were lysed forty-eight hours later, following overnight serum starvation. Akt activation in this, and subsequent experiments, was determined by measuring the phosphorylation of histone 2B (H2B) by immunoprecipitated Akt.
Akt/PKB activation by phosphorylation strictly depends on the binding of the Akt PH domain to PtdIns-3,4,5-P3 and therefore, indirectly measures intracellular PtdIns-3,4,5-P3 levels (Chan et al., 1999, Ann Rev Biochem 68, 965-1015). Akt/PKB kinase activation was determined either by measuring the phosphorylation of Akt at Thr308 using an antibody from Cell Signaling Technology or by measuring the kinase activity of immunoprecipitated FLAG-tagged wild type Akt. The activity of immunoprecepitated Akt was measured using Histone 2B as the substrate, and following previously described protocols (Bellacosa et al., 1998, Oncogene 17, 313-25; Franke et al., 1995, Cell 81, 727-736) with slight modifications. Briefly, cells were lysed on ice using a NP40 lysis buffer (25 mM Tris-HCl pH 7.6, 137 mM NaCl, 10% glycerol, 1% NP40, 10 mM NaF) freshly supplemented with 1 mM Sodium pyrophosphate, 5 μg/ml leupeptin, 5 μg/ml aprotinin, 1 mM EDTA, 10 mM PMSF, 1 mM NaVO4 and 1 mM DTT. […] The phosphorylated Histone H2B was visualized by autoradiography and quantitated by Phosphorlmager (Molecular Dynamics). Akt expression was determined by probing the membranes with a polyclonal rabbit anti-Akt antibody.
Specific Akt kinase activity was determined by Phosphorimager-quantitation of the ^32P-phosphorylated Akt substrate Histone 2B, and by quantification of Akt in anti-Akt immunoprecipitates using a laser densitometry scanner (Molecular Dynamics). […]

PI3K = assay: PtdIns-3,4,5-P3 measured by thin layer chromatography in lipid extracts of 32P-labeled transfected NIH3T3 cells; assay type: cell-based, mouse; settings: construct co-transfected with constitutively-active H-Ras G12V; serum-free; 32P-orthophosphate 1.5 h
Procedure: In FIG. 1, it is shown that p85 inhibits while p85Δonc enhances PI3K activation by small GTPases. (A) Schematic diagrams and expression of transiently transfected HA-tagged p85-WT and p85Δonc constructs. (B) Upper panel. p85-WT inhibits while p85Δonc enhances HRas-induced PtdIns-3, 4, 5-P3 production. The indicated constructs were transiently transfected into NIH3T3 cells. Sixteen hours after transfection, the cells were cultured in serum-free media. Five hours later, they were labeled with ^32P-orthophosphate for 1.5 hours. Total phospholipids were analyzed by thin layer chromatography. (B) Lower panel. p85-WT inhibits while p85Δonc enhances H-Ras induced Akt phosphorylation. Immunoblots of cell extracts from duplicate transfections were probed with an antibody that recognizes Akt phosphorylated at Thr308 or with antibodies that recognize the proteins expressed from the transfected constructs. […] NIH3T3 cells were transiently transfected with the indicated constructs. ^32P-labeled PtdIns-3, 4, 5-P3 was measured as described in B. Akt phosphorylation at Thr308 and expression of transfected constructs were determined by probing immunoblots with the corresponding antibodies. […]
PtdIns-3, 4, 5-P3 was measured in lipid extracts of ^32P-labeled NIH3T3 cells by thin layer chromatography (Maehama et al., 1998, J Biol Chem 273, 13375-8). […]

| Substance | Long-term cell survival (10 days) in suspension, cells expressing activated H-Ras G12V (HaCaT cells; EGF 2 nM, serum-free defined medium) | Rescue from anoikis, HaCaT cells without H-Ras G12V (HaCaT cells; EGF alone, 2 nM) | PI3K/Akt activation, HaCaT cells without H-Ras G12V (HaCaT cells; EGF alone, 2 nM, 6 hours in suspension) | PI3K activation by Ras signals in the presence of NM-Src (PI3K/Akt pathway; H-Ras-G12V plus NM-Src, PtdIns-3,4,5-P3 and Akt Thr308) | H-Ras induced Akt phosphorylation at Thr308 (PI3K/Akt pathway; co-transfected with H-Ras G12V, immunoblot) | PI3K/Akt activation by H-Ras (Akt kinase activity, H2B phosphorylation) (PI3K/Akt pathway; co-transfected with constitutively-active H-Ras and FLAG-Akt, overnight serum starvation) | H-Ras-induced PtdIns-3, 4, 5-P3 production (PI3K) |
| --- | --- | --- | --- | --- | --- | --- | --- |
| epidermal growth factor (NSDSECPLSHDGYCLHDGVCMYIEALDKYACNCVVGYIGERCQYRDLKWWELR; Epidermal growth factor; UniProt P01133 971-1023, looked up) [EGF] | cooperate to support long-term cell survival | failed to rescue | inefficient | – | – | – | – |
| p85-WT: HA-tagged construct of wild-type p85, regulatory subunit of PI3K | – | – | – | does not inhibit | inhibits | blocks | inhibits |
